# “Also recorded” adds a separate entry of the source.
# Experiments:
# physiological VEGF-A = test: Phase 1 multiple-dose study: plasma and serum physiological VEGF-A concentrations; assay type: in vivo, human; conditions: healthy volunteers, all doses tested
# From the text: Plasma VEGF Concentrations: Plasma and serum VEGF concentrations and concentration changes from baseline were presented descriptively.
# [1] = 28-day oral toxicity study in rats (14-day recovery); assay type: in vivo
# Experimental: (§1) A battery of genotoxicity studies was also performed. […] The L23 vehicle was used.
# Exposures were maximal at 120 mg/kg/day.
# LNCaP xenografts = test: LNCaP prostate cancer xenograft: tumor growth (Table 20); assay type: in vivo, athymic nude mice
# Experimental: Experimental Design. The LNCaP cell line is derived from a lymph node metastasis.
# Tumor size was measured by calipers at periodic intervals during the study. When the mean tumor size in a mouse exceeded 1500 mm^3, mice in that group were sacrificed and both tumor and plasma were assayed for pathologic VEGF concentration as described in Section 9.1.1.1.
# [2] = 14C-Compound #10 tissue distribution by quantitative whole-body autoradiography (Tables 23, 33); assay type: in vivo; conditions: rats, single oral 50 mg/kg
# Experimental: For the QWBA, the carcasses were prepared by immediately freezing them, embedding them in chilled carboxymethylcellulose, and freezing them into blocks. Appropriate cryomicrotome sections of the blocks at 40 μm thickness were collected on adhesive tape. Mounted sections were tightly wrapped and exposed on phosphorimaging screens along with plastic embedded autoradiographic standards. Exposed screens were scanned and the autoradiographic standard image data were sampled to create a calibrated standard curve. Specified tissues, organs, and fluids were analyzed.
# [3] = Respiratory safety pharmacology in awake telemeterized dogs; assay type: in vivo, beagle dogs; conditions: single oral doses of 30, 60, and 120 mg/kg, male dogs
# HT1080 cells [4] = test: Reversibility of cell cycle delay after washout in HT1080 cells; assay type: cell-based, human; conditions: HT1080, 100 nM for 14 hours, then washout
# [5] = Functional observation battery, 7 days oral gavage; assay type: in vivo, Sprague Dawley rats; conditions: 40, 120, and 400 mg/kg daily for 7-days
# CYP2C9 = target: T1, CYP2C9 (Homo sapiens, UniProt P11712); test: CYP inhibition: CYP2C9; assay type: in vitro ADME; conditions: human hepatic microsomes or recombinant isoenzymes
# T1 construct: host or cells: human hepatic microsomes or recombinant isoenzyme (not distinguished)
# From the text: (§2) It is possible that in certain clinical trial subjects, such agents may need to be adjusted for dosing or replaced by alternative agents that are not metabolized by CYP2D6, particularly when such agents may have a low therapeutic index.
# HT1080 cells [6] = test: Anchorage-independent colony formation in HT1080 cells; assay type: cell-based, human; conditions: 10 and 50 nM, day 18; P=0.29 and 0.07
# Experimental: Experimental Design. HT1080 cells growing in monolayer were trypsinized, counted and suspended in a 0.35% agar noble/1× complete DMEM solution at 37° C. at a concentration of 2,500 cells/mL. One ml of this solution was layered over a semisolid base consisting of 0.5 mL of 0.75% agar noble/1× complete DMEM in a six well tissue culture plate. […] Tissue culture plates were then returned to the incubator and colonies were allowed to form. […] On day 18 the vehicle-treated wells had colonies of sufficient size to count (>50 cells/colony). At this time, for increased visualization, 1.5 mL of a 2× working volume of (3-(4,5-Dimethylthiazol-2-yl)-2,5-diphenyltetrazolium bromide, a tetrazole) (MTT, Invitrogen, Cat #C35007) was added and the plates were returned to the incubator for 2 hours until colonies were stained by conversion of the MTT to purple formazan crystals. Colonies were then visually counted under a dissecting microscope.
# HT1080 cells [7] = test: HT1080 spheroid cell viability and mobility (migration after re-plating); assay type: cell-based, human
# Experimental: Experimental Design. […] Pictures were then taken 48 hours to assess the migration and proliferation of the cells across the well's surface.
# [8] = Single-dose oral toxicity study in rats; assay type: in vivo
# Experimental: as §1
# Because maximal exposure occurred at 100 mg/kg, this dose is considered the NOAEL for 1 day of dosing.
# [9] = 7-day oral toxicity study in dogs; assay type: in vivo
# VEGF-A = test: Patients: serum and plasma VEGF-A levels; assay type: in vivo, human
# Experimental: Subjects with NF2 may receive continuous daily treatment with a Compound administered at 100 mg per dose, 2 times a day (BID) for up to 1 year, or longer as appropriate, or until tumor progression. […] Tumor shrinkage or an improvement in hearing are indicators of efficacy.
# Anti-angiogenic activity: Assessing VEGF concentrations provides a relevant and convenient mechanism-specific marker of Compound activity. […] For example, clinically validated ELISA kits (e.g., from R&D Systems, Minneapolis, Minn.) may be used to measure concentrations of VEGF, VEGF-C, P1GF, VEGFR, and inflammatory mediators such as IL-6 and IL-8. CT scan and MRI scan may also be used to assess peritumoral inflammation or edema.
# Blood for VEGF, VEGFR, and Cytokines. Two blood samples (1 for plasma and 1 for serum) may be obtained for assessment of VEGF, VEGFR, and cytokine levels.
# Each sample for plasma collection may comprise 3 mL of venous blood drawn into a […]® tube with K2EDTA as the anticoagulant. Immediately after collection, the tube may be gently inverted 8 to 10 times to mix the anticoagulant with the blood sample. The tube may be stored upright at room temperature until centrifugation; centrifugation and sample processing may be performed within 30 minutes of sample collection. […]
# CYPC19 = target: T2, CYPC19 (Homo sapiens, UniProt P33261); test: CYP inhibition: CYPC19; assay type: in vitro ADME; conditions: human hepatic microsomes or recombinant isoenzymes
# T2 construct: host or cells: human hepatic microsomes or recombinant isoenzyme (not distinguished)
# From the text: as §2
# [10] = LNCaP xenografts, male athymic nude mice, 10 mg/kg M-W-F oral gavage
# T2 sequence (P33261 whole entry): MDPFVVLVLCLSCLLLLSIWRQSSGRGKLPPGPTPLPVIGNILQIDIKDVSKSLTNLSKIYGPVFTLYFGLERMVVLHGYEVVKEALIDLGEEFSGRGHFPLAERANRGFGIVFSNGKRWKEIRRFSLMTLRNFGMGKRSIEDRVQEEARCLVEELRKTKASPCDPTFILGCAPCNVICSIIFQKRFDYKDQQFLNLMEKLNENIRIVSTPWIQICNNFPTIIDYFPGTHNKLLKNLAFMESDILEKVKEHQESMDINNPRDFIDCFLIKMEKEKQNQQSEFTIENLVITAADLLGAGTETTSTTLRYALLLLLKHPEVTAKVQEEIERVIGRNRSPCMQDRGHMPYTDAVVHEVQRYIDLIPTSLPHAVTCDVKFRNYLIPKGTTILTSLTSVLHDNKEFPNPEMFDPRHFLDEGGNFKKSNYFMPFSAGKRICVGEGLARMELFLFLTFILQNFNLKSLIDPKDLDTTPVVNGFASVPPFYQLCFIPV
# T1 sequence (P11712 whole entry): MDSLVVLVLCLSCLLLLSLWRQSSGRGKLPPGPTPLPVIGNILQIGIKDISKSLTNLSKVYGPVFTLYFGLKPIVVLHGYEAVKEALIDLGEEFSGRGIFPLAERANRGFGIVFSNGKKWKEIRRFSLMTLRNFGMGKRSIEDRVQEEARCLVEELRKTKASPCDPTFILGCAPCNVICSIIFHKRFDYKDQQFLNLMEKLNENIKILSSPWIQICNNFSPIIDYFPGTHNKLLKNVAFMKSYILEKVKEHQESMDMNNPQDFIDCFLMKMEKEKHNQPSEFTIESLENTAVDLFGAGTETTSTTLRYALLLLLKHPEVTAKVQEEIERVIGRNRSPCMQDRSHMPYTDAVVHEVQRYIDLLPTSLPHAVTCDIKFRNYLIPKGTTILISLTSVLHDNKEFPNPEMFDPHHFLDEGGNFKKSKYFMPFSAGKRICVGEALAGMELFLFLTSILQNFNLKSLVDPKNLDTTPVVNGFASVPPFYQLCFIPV
structure (smiles),measurement,setting,value
COc1ccc(C2c3[nH]c4ccc(Cl)cc4c3CCN2C(=O)Oc2ccc(Cl)cc2)cc1 (racemic) [Compound #10],Effect on plasma or serum physiological VEGF-A concentrations,physiological VEGF-A,no clear dose dependent effects; also recorded: No significant alterations
same,NOAEL for 28-days,[1],12 mg/kg/day
same,Dose of maximal exposures,[1]; 28-day oral gavage,120 mg/kg/day
same,Adrenal weights,"[1]; 28-day, all dose levels",Increased
same,Time to tumor progression (time to reach ≧1000 mm^3),LNCaP xenografts; 10 mg/kg M-W-F,prolonged
same,Toxicity on observing the animals,LNCaP xenografts; LNCaP xenograft mice,no evidence of toxicity
same,Mean % Inhibition of Tumor Size vs Vehicle at Day 35,LNCaP xenografts; [10],36%
same,Median Time to Tumor Size ≧1000 mm^3,LNCaP xenografts; [10],38 days
same,Tmax of radioactivity in blood and plasma,[2]; both sexes,4 hours postdose
same,Blood-brain barrier penetration,[2],penetrates the blood-brain barrier
same,Overt signs of toxicity,[2],no overt signs of toxicity
same,"Changes in respiratory rate, core body temperature, arterial blood gases, arterial pH, or arterial bicarbonate",[3],no dose dependent or biologically significant changes
same,Time after washout by which cells had resumed normal cycling,HT1080 cells [4],≤ 26 h
same,Behavioral or neurological effects,[5],no adverse behavioral or neurological effects
same,Inhibition of CYP2C9,CYP2C9,No meaningful inhibition
same,Number of anchorage-independent colonies formed,HT1080 cells [6],modest trend toward a reduced number of colonies
same,"Proliferative and migratory capacity after three-week exposure, re-plated in the absence of compound",HT1080 cells [7]; 50 nM for 3 weeks,does not reduce either the proliferative or the migratory capacity
same,Migration of cells out of control spheroids re-plated in the presence of compound,"HT1080 cells [7]; 50 nM, 48 hours",blocked in their ability to migrate out of the spheroid
same,Dose of maximal exposure,"[8]; Sprague Dawley, rat, in vivo, po, 1 day",100 mg/kg
same,NOAEL at 1 day,"[8]; Sprague Dawley, rat, in vivo, rats, single oral gavage, read-out: NOAEL for 1 day of dosing",100 mg/kg
same,Clinical or clinical pathological toxicities,"[8]; rats, single oral 100, 200, or 400 mg/kg",no notable clinical or clinical pathological toxicities
same,Dose of maximal exposures,[9]; 7 consecutive days,30 mg/kg/dose BID
same,Treatment-related clinical findings,"[9]; 7 days, males and females",increased incidence and frequency of soft stools
same,Plasma VEGF-A levels in patients (FIG. 35),VEGF-A,reduced
same,Serum VEGF-A levels in patients (FIG. 34),VEGF-A,reduced
same,Inhibition of CYPC19,CYPC19,No meaningful inhibition

# — patent US20120157401A1, “METHODS FOR TREATING NEUROFIBROMATOSIS” (PTC Therapeutics, Inc., priority 2009, published 2012)
